The text below walks through data of patent US11433055B2, “Chromane monobactam compounds for the treatment of bacterial infections” (priority 2017, dated 2022).

Type in all cases: cell-based
Common to all, as to settings: lowest concentration inhibiting 95% of bacterial growth, in the presence of β lactamase inhibitor (BLi, Relebactam), 22 hours, 35±2° C., OD600

For assay [1], the system named is Acinetobacter baumannii expressing TEM-1, AmpC, and Oxa-24/40 (CL6188). On the procedure:
(§1) Antibiotic Activity: Determination of Growth Inhibitory Concentration
(§2) The concentrations of compounds required to inhibit the growth of various strains of bacteria were determined in an assay that assessed bacterial growth by measuring optical density at 600 nm (OD600). The bacterial strains tested included the clinical strains Escherichia coli expressing NDM-1 (CLB30016), Klebsiella pneumoniae expressing KPC-1 (CL6569), Acinetobacter baumannii expressing TEM-1, AmpC, and Oxa-24/40 (CL6188) and Pseudomonas aeruginosa expressing AmpC (CL5701). All compounds were tested in the presence of a β lactamase inhibitor (BLi, Relebactam) in 384-well microplates. The clinical strains were stored as frozen single use stocks, thawed and diluted into 1.1× cation-adjusted Mueller-Hinton II broth to achieve approximately 2×10^5 CFU/mL. Test compounds were dissolved in DMSO and diluted 1:50 in the assay, resulting in a final concentration range of 100 μM to 0.098 μM. On the day of the assay, 1 μL of test compound was added to the plate followed by 4 μL of 50 μg/mL BLi in MOPS buffer and 45 μL of diluted bacteria. Plates were centrifuged at 1000 rpm for 30 seconds, shaken at approximately 800 rpm for 1 minute, and incubated at 35±2° C. for 22 hours. The concentration of BLi used in the assay was […]. At the end of the incubation, absorbance at 600 nm was determined using a spectrophotometer. Inhibition was quantitated by identifying the lowest concentration of test compound that was required to inhibit 95% of the growth of the bacteria. The results for Examples 1-39 are reported in Table I, expressed as the concentration of compound that inhibited 95% of bacterial growth (Minimum Inhibitory Threshold Concentration; MITC95).

Assay [2] has as its system Escherichia coli expressing NDM-1 (CLB30016). How it is done:
as §1, §2

Assay [3] has as its system Klebsiella pneumoniae expressing KPC-1 (CL6569). How it is done:
as §1, §2

Assay [4] relates to Pseudomonas aeruginosa expressing AmpC (CL5701). How it is done:
as §1, §2

The structures appear in SMILES notation. Structures can show the parent of a compound that is named as a salt. Where two headings read alike, the source gives them in different places.

In the case of `CC1(C)[C@H](NC(=O)/C(=N\O[C@](C)(C(=O)O)[C@H]2CCc3cc(-c4cnc(NC[C@@H](O)CN)[n+](CC5CNC5)c4)ccc3O2)c2csc(N)n2)C(=O)N1OS(=O)(=O)[O-].O=CO` [Example 20, (S)-3-((Z)-2-(((S)-1-((R)-6-(2-(((S)-3-amino-2-hydroxy-propyl)amino)-1-(azetidin-1-ium-3-ylmethyl)pyrimidin-1-ium-5-yl)chroman-2-yl)-1-carboxyethoxy)imino)-2-(2-aminothiazol-4-yl)acetamido)-2,2-dimethyl-4-oxoazetidin-1-yl sulfate formate], in assay [1], the “AB_CL6188 MITC95” value was 6.25 µM. Besides, in assay [2], the “EC_CLB30016 MITC95” value came to 6.25 µM. The “KP_CL6569 MITC95” value in assay [3] worked out at 0.3906 µM. Besides, the “PA_CL5701 MITC95” value in assay [4] is 6.25 µM.

For `CC1(C)[C@H](NC(=O)/C(=N\O[C@](C)(C(=O)O)[C@H]2CCc3cc(-c4cnc(NCCCN)nc4)ccc3O2)c2csc(N)n2)C(=O)N1OS(=O)(=O)O` [Example 33, 3-((5-((R)-2-((S)-1-((((Z)-1-(2-aminothiazol-4-yl)-2-(((S)-2,2-dimethyl-4-oxo-1-(sulfooxy)azetidin-3-yl)amino)-2-oxoethylidene)amino)oxy)-1-carboxyethyl)chroman-6-yl)pyrimidin-2-yl)amino)propan-1-aminium Formate], the “AB_CL6188 MITC95” value in assay [1] turned out to be 3.125 µM. Further, the “EC_CLB30016 MITC95” value in assay [2] amounted to 6.25 µM. In assay [3], the “KP_CL6569 MITC95” value was 0.3906 µM. The “PA_CL5701 MITC95” value in assay [4] is 6.25 µM.

For `C[n+]1cc(-c2ccc3c(c2)CC[C@H]([C@](C)(O/N=C(\C(=O)N[C@@H]2C(=O)N(OS(=O)(=O)[O-])C2(C)C)c2csc(N)n2)C(=O)O)O3)cnc1NC[C@@H](O)CN.O=CO` [Example 18, (S)-3-((Z)-2-(2-aminothiazol-4-yl)-2-(((S)-1-((R)-6-(2-(((S)-3-ammonio-2-hydroxy-propyl)amino)-1-methylpyrimidin-1-ium-5-yl)chroman-2-yl)-1-carboxy-ethoxy)imino)acetamido)-2,2-dimethyl-4-oxoazetidin-1-yl sulfate formate], the “AB_CL6188 MITC95” value in assay [1] amounted to 3.125 µM. For the same compound, the “EC_CLB30016 MITC95” value in assay [2] was 6.25 µM. Also, the “KP_CL6569 MITC95” value in assay [3] came out at 0.3906 µM. Moreover, the “PA_CL5701 MITC95” value in assay [4] came out at 6.25 µM.

For the compound `C[n+]1cc(-c2ccc3c(c2)CC[C@H]([C@](C)(O/N=C(\C(=O)N[C@@H]2C(=O)N(OS(=O)(=O)[O-])C2(C)C)c2csc(N)n2)C(=O)O)O3)ccc1NC(CN)CN.O=CO` [Example 23B, (3S)-3-((Z)-2-(((1S)-1-((2R)-6-(6-((1-amino-3-ammoniopropan-2-yl)amino)-1-methylpyridin-1-ium-3-yl)chroman-2-yl)-1-carboxyethoxy)imino)-2-(2-aminothiazol-4-yl)acetamido)-2,2-dimethyl-4-oxoazetidin-1-yl sulfate formate], in assay [1] (sulfate formate), the “AB_CL6188 MITC95” value turned out to be 12.5 µM. Further, in assay [2] (sulfate formate), the “EC_CLB30016 MITC95” value stood at 100 µM. Also, the “KP_CL6569 MITC95” value in assay [3] (sulfate formate) came out at 3.125 µM. The “PA_CL5701 MITC95” value in assay [4] (sulfate formate) was determined as 25 µM.

Consider `CC1(C)[C@H](NC(=O)/C(=N\O[C@](C)(C(=O)O)[C@H]2CCc3cc(C4CN=C(NC(CN)CN)NC4)ccc3O2)c2csc(N)n2)C(=O)N1OS(=O)(=O)O.O=CO` (stereo partly drawn) [Example 31, 5-((R)-2-((S)-1-((((Z)-1-(2-aminothiazol-4-yl)-2-(((S)-2,2-dimethyl-4-oxo-1-(sulfooxy)azetidin-3-yl)amino)-2-oxoethylidene)amino)oxy)-1-carboxyethyl)chroman-6-yl)-2-((1,3-diaminopropan-2-yl)amino)-3,4,5,6-tetrahydropyrimidin-1-ium formate], for which the “AB_CL6188 MITC95” value in assay [1] was determined as 3.125 µM. The “EC_CLB30016 MITC95” value in assay [2] is 6.25 µM. Further, in assay [3], the “KP_CL6569 MITC95” value was 0.3906 µM. Further, in assay [4], the “PA_CL5701 MITC95” value amounted to 3.125 µM.

On to `C[n+]1cc(-c2ccc3c(c2)CC[C@H]([C@](C)(O/N=C(\C(=O)N[C@@H]2C(=O)N(OS(=O)(=O)[O-])C2(C)C)c2csc(N)n2)C(=O)O)O3)ccc1NC(CN)CN.O=CO` [Example 23A, (3S)-3-((Z)-2-(((1S)-1-((2R)-6-(6-((1-amino-3-ammoniopropan-2-yl)amino)-1-methylpyridin-1-ium-3-yl)chroman-2-yl)-1-carboxyethoxy)imino)-2-(2-aminothiazol-4-yl)acetamido)-2,2-dimethyl-4-oxoazetidin-1-yl sulfate formate], for which the “AB_CL6188 MITC95” value in assay [1] (sulfate formate) amounted to 6.25 µM. Moreover, in assay [2] (sulfate formate), the “EC_CLB30016 MITC95” value amounted to 12.5 µM. Moreover, the “KP_CL6569 MITC95” value in assay [3] (sulfate formate) came out at 0.3906 µM. In addition, the “PA_CL5701 MITC95” value in assay [4] (sulfate formate) was 3.125 µM.

Consider `CC1(C)[C@H](NC(=O)/C(=N\O[C@](C)(C(=O)O)[C@H]2CCc3cc(-c4cn(CCCN)c(=N)n4C[C@H](O)CO)ccc3O2)c2csc(N)n2)C(=O)N1OS(=O)(=O)O` [Example 9, (S)-3-((Z)-2-(((S)-1-((R)-6-(1-(3-aminopropyl)-3-((S)-2,3-dihydroxypropyl)-2-imino-2,3-dihydro-1H-imidazol-4-yl)chroman-2-yl)-1-carboxyethoxy)imino)-2-(2-aminothiazol-4-yl)acetamido)-2,2-dimethyl-4-oxoazetidin-1-yl sulfate], for which the “AB_CL6188 MITC95” value in assay [1] stood at 12.5 µM. The “EC_CLB30016 MITC95” value in assay [2] turned out to be 12.5 µM. In addition, in assay [3], the “KP_CL6569 MITC95” value is 0.3906 µM. Further, the “PA_CL5701 MITC95” value in assay [4] is 6.25 µM.

Consider `C[n+]1cc(-c2ccc3c(c2)CC[C@H](CO/N=C(\C(=O)N[C@@H]2C(=O)N(OS(=O)(=O)[O-])C2(C)C)c2csc(N)n2)O3)cn1CCCN` [Example 11, (S)-3-((Z)-2-((((R)-6-(1-(3-aminopropyl)-2-methyl-1H-pyrazol-2-ium-4-yl)chroman-2-yl)methoxy)imino)-2-(2-aminothiazol-4-yl)acetamido)-2,2-dimethyl-4-oxoazetidin-1-yl sulfate], for which the “AB_CL6188 MITC95” value in assay [1] was found to be 3.125 µM. For the same compound, in assay [2], the “EC_CLB30016 MITC95” value turned out to be 6.25 µM. Also, the “KP_CL6569 MITC95” value in assay [3] was found to be 0.7813 µM. In assay [4], the “PA_CL5701 MITC95” value amounted to 3.125 µM.

Consider `CC1(C)[C@H](NC(=O)/C(=N\O[C@](C)(C(=O)O)[C@H]2CCc3cc(C4CN=C(NC[C@@H](O)CN)NC4)ccc3O2)c2csc(N)n2)C(=O)N1OS(=O)(=O)O.O=CO` (stereo partly drawn) [Example 29, 2-(((S)-3-amino-2-hydroxypropyl)amino)-5-((R)-2-((S)-1-((((Z)-1-(2-aminothiazol-4-yl)-2-(((S)-2,2-dimethyl-4-oxo-1-(sulfooxy)azetidin-3-yl)amino)-2-oxoethylidene)amino)oxy)-1-carboxyethyl)chroman-6-yl)-3,4,5,6-tetrahydropyrimidin-1-ium formate], for which the “AB_CL6188 MITC95” value in assay [1] was determined as 3.125 µM. For the same compound, in assay [2], the “EC_CLB30016 MITC95” value was found to be 25 µM. Further, the “KP_CL6569 MITC95” value in assay [3] came to 1.563 µM. Also, the “PA_CL5701 MITC95” value in assay [4] was 6.25 µM.

Turning to `C[n+]1cc(-c2ccc3c(c2)CC[C@@H](CO/N=C(\C(=O)N[C@@H]2C(=O)N(OS(=O)(=O)[O-])C2(C)C)c2csc(N)n2)O3)ccc1NCCN` [Example 36, mono((R)-3-((Z)-2-(2-aminothiazol-3-ium-4-yl)-2-((((S)-6-(6-((2-ammonioethyl)amino)-1-methyl-pyridin-1-ium-3-yl)chroman-2-yl)methoxy)imino)acetamido)-2,2-dimethyl-4-oxoazetidin-1-yl sulfate) mono(2,2,2-trifluoroacetate)], the “AB_CL6188 MITC95” value in assay [1] came out at 3.125 µM. Moreover, in assay [2], the “EC_CLB30016 MITC95” value worked out at 12.5 µM. Further, in assay [3], the “KP_CL6569 MITC95” value turned out to be 0.7813 µM. The “PA_CL5701 MITC95” value in assay [4] came out at 6.25 µM.

Consider `C[n+]1cc(-c2ccc3c(c2)CC[C@H]([C@](C)(O/N=C(\C(=O)N[C@@H]2C(=O)N(OS(=O)(=O)[O-])C2(C)C)c2csc(N)n2)C(=O)O)O3)cn1C[C@H](O)CN` [Example 7, (S)-3-((Z)-2-(((S)-1-((R)-6-(1-((R)-3-amino-2-hydroxypropyl)-2-methyl-1H-pyrazol-2-ium-4-yl)chroman-2-yl)-1-carboxyethoxy)imino)-2-(2-aminothiazol-4-yl)acetamido)-2,2-dimethyl-4-oxoazetidin-1-yl sulfate], for which the “AB_CL6188 MITC95” value in assay [1] stood at 25 µM. The “EC_CLB30016 MITC95” value in assay [2] was determined as 25 µM. Further, the “KP_CL6569 MITC95” value in assay [3] stood at 1.563 µM. For the same compound, the “PA_CL5701 MITC95” value in assay [4] was determined as 12.5 µM.
